Test results from US9266892B2, “Fused pyrazoles as FGFR inhibitors” (Incyte Corporation, priority 2012, dated 2016).

Experiments:
Type in all cases: biochemical
FGFR2 = molecular target: T1, FGFR2 (Homo sapiens, UniProt P21802); assay: FGFR Enzymatic Assay (FRET peptide phosphorylation), FGFR2; details: FGFR2 0.01 nM, ATP 100 μM
T1 construct: purchased Millipore or Invitrogen
Method: (§1) The inhibitor potency of the Example compounds was measured in an enzyme assay that measures peptide phosphorylation using FRET measurements to detect product formation. Inhibitors were serially diluted in DMSO and a volume of 0.5 μL was transferred to the wells of a 384-well plate. For FGFR3, a 10 μL volume of FGFR3 enzyme (Millipore) diluted in assay buffer (50 mM HEPES, 10 mM MgCl2, 1 mM EGTA, 0.01% Tween-20, 5 mM DTT, pH 7.5) was added to the plate and pre-incubated for 5-10 minutes. Appropriate controls (enzyme blank and enzyme with no inhibitor) were included on the plate. The assay was initiated by the addition of a 10 μL solution containing biotinylated EQEDEPEGDYFEWLE peptide substrate (SEQ ID NO: 1) and ATP (final concentrations of 500 nM and 140 μM respectively) in assay buffer to the wells. The plate was incubated at 25° C. for 1 hr. The reactions were ended with the addition of 10 μL/well of quench solution (50 mM Tris, 150 mM NaCl, 0.5 mg/mL BSA, pH˜7.8, 30 mM EDTA with Perkin Elmer Lance Detection Reagents at 3.75 nM Eu-antibody PY20 and 180 nM APC-Streptavidin). The plate was allowed to equilibrate for 1 hour before scanning the wells on a PheraStar plate reader (BMG Labtech). The enzymes were purchased from Millipore or Invitrogen.
(§2) FGFR1 and FGFR2 were measured under equivalent conditions with the following changes in enzyme and ATP concentrations: FGFR1, 0.02 nM and 210 μM, respectively and FGFR2, 0.01 nM and 100 μM, respectively.
(§3) GraphPad prism3 was used to analyze the data. The IC50 values were derived by fitting the data to the equation for a sigmoidal dose-response with a variable slope. Y=Bottom+(Top−Bottom)/(1+10^((Log IC50−X)*HillSlope)) where X is the logarithm of concentration and Y is the response.

FGFR1 = molecular target: T2, FGFR1 (Homo sapiens, UniProt P11362); assay: FGFR Enzymatic Assay (FRET peptide phosphorylation), FGFR1; details: FGFR1 0.02 nM, ATP 210 μM
T2 construct: purchased Millipore or Invitrogen
Method: as §1, §2, §3

FGFR3 = molecular target: T3, FGFR3 (Homo sapiens, UniProt P22607); assay: FGFR Enzymatic Assay (FRET peptide phosphorylation), FGFR3; details: ATP 140 μM, 25° C. for 1 hr
T3 construct: purchased Millipore
Method: as §1, §3

T2 sequence (P11362 22-822): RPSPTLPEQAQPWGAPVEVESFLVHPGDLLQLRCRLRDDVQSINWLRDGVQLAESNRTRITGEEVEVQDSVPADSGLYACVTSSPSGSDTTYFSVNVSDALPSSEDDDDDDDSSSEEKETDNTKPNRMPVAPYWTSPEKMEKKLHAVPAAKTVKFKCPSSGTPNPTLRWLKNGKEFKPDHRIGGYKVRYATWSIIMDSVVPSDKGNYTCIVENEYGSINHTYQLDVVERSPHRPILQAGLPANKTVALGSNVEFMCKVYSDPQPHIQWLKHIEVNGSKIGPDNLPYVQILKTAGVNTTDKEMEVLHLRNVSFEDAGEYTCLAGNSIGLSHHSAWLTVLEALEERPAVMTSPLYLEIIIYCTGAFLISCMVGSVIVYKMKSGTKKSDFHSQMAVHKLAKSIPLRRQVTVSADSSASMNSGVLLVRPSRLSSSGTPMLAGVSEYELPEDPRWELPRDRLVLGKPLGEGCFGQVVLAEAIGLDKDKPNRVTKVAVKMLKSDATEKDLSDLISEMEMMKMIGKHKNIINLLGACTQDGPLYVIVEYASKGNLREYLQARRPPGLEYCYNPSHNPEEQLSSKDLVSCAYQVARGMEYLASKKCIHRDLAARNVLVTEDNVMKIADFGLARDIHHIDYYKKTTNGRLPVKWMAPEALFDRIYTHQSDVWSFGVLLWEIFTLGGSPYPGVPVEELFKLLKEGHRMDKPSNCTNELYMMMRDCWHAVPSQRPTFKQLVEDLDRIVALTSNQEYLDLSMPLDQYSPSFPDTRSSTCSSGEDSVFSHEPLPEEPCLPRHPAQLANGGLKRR
T1 sequence (P21802 22-821): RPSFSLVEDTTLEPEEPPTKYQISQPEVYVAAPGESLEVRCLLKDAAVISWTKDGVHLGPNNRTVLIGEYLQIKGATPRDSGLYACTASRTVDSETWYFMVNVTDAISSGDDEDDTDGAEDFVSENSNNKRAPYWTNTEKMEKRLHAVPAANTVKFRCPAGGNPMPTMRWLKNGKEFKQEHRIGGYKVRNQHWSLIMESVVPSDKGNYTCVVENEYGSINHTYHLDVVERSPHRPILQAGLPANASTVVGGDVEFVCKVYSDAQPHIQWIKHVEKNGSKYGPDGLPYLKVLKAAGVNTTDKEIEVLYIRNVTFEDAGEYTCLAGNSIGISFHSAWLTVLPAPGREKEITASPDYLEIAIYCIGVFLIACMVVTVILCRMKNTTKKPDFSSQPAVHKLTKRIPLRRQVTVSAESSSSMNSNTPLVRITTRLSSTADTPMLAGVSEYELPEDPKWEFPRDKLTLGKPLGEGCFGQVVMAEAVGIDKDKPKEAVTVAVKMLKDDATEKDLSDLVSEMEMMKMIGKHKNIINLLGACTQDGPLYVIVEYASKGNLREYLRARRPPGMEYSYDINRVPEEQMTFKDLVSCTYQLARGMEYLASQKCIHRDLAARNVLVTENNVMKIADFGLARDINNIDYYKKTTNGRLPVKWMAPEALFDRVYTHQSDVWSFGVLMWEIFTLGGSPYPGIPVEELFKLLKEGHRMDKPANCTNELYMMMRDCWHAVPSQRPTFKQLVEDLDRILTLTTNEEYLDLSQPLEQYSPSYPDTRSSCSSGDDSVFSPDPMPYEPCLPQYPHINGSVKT
T3 sequence (P22607 23-806): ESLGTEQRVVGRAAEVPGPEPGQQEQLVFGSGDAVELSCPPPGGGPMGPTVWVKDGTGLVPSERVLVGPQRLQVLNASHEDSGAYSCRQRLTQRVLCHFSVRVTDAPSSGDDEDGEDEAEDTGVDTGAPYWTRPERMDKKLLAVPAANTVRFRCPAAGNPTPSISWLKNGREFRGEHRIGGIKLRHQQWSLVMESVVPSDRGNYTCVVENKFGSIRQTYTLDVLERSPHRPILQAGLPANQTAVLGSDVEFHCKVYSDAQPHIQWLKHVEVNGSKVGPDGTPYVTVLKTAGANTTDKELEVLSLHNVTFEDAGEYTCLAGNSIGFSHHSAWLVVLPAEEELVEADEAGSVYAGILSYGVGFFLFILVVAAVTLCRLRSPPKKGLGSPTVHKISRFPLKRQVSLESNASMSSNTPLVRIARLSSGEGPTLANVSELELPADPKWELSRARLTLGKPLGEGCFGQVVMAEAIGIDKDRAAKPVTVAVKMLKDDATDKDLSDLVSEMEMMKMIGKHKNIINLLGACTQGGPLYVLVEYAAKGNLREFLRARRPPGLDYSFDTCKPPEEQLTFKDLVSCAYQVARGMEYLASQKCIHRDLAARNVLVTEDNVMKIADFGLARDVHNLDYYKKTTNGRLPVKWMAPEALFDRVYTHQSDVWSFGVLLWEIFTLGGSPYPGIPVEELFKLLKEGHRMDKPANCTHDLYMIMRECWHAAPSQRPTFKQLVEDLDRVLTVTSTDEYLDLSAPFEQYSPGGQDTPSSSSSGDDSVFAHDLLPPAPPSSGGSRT

IC50 (FGFR2)	IC50 (FGFR1)	IC50 (FGFR3)	Structure (SMILES)
< 100 nM	< 100 nM	< 100 nM	COc1cc(OC)c(F)c(-c2cc3[nH]nc(-c4ccc5c(c4)CN(CC(C)O)C5=O)c3cn2)c1F (stereo not drawn) [Example 64, 5-[6-(2,6-Difluoro-3,5-dimethoxyphenyl)-1H-pyrazolo[4,3-c]pyridin-3-yl]-2-(2-hydroxypropyl)isoindolin-1-one]
< 100 nM	< 100 nM	< 100 nM	CCN1Cc2cc(-c3n[nH]c4cc(-c5c(F)c(OC)cc(OC)c5Cl)ncc34)ccc2C1=O [Example 69, 5-[6-(2-chloro-6-fluoro-3,5-dimethoxyphenyl)-1H-pyrazolo[4,3-c]pyridin-3-yl]-2-ethylisoindolin-1-one]
< 100 nM	< 100 nM	< 100 nM	COc1cc(OC)c(F)c(-c2ncc3c(-c4ccc(N5CCN(C)CC5)cc4)n[nH]c3n2)c1F [Example 17, 6-(2,6-Difluoro-3,5-dimethoxyphenyl)-3-[4-(4-methylpiperazin-1-yl)phenyl]-1H-pyrazolo[3,4-d]pyrimidine]
< 100 nM	< 100 nM	< 100 nM	COc1cc(OC)c(F)c(-c2ncc3c(-c4ccc5c(c4)CN([C@H]4CC[C@@H](O)CC4)C5=O)n[nH]c3n2)c1F [Example 16, 5-[6-(2,6-Difluoro-3,5-dimethoxyphenyl)-1H-pyrazolo[3,4-d]pyrimidin-3-yl]-2-(cis-4-hydroxycyclohexyl)isoindolin-1-one]
< 100 nM	< 100 nM	< 100 nM	COc1cc(OC)c(F)c(-c2cc3[nH]nc(-c4ccc5c(c4)CN(CC(F)(F)F)C5=O)c3cn2)c1F [Example 60, 5-[6-(2,6-Difluoro-3,5-dimethoxyphenyl)-1H-pyrazolo[4,3-c]pyridin-3-yl]-2-(2,2,2-trifluoroethyl)isoindolin-1-one]
< 100 nM	< 100 nM	< 100 nM	COCCN1Cc2cc(-c3n[nH]c4cc(-c5c(F)c(OC)cc(OC)c5F)ncc34)ccc2C1=O [Example 58, 5-[6-(2,6-Difluoro-3,5-dimethoxyphenyl)-1H-pyrazolo[4,3-c]pyridin-3-yl]-2-(2-methoxyethyl)isoindolin-1-one]
< 100 nM	< 100 nM	< 100 nM	COCCNC(=O)Cn1cc(-c2n[nH]c3cc(-c4c(Cl)c(OC)cc(OC)c4Cl)ncc23)cn1 [Example 46, 2-{4-[6-(2,6-Dichloro-3,5-dimethoxyphenyl)-1H-pyrazolo[4,3-c]pyridin-3-yl]-1H-pyrazol-1-yl}-N-(2-methoxyethyl)acetamide]
< 100 nM	< 100 nM	< 100 nM	COc1cc(OC)c(F)c(-c2cc3[nH]nc(-c4ccnc(N5CCN(C)CC5)c4)c3cn2)c1F [Example 27, 6-(2,6-Difluoro-3,5-dimethoxyphenyl)-3-[2-(4-methylpiperazin-1-yl)pyridin-4-yl]-1H-pyrazolo[4,3-c]pyridine]
< 100 nM	< 100 nM	< 100 nM	COc1cc(OC)c(Cl)c(-c2cc3[nH]nc(-c4ccc5c(c4)COC5=O)c3cn2)c1Cl [Example 32, 5-[6-(2,6-Dichloro-3,5-dimethoxyphenyl)-1H-pyrazolo[4,3-c]pyridin-3-yl]-2-benzofuran-1(3H)-one]
< 100 nM	< 100 nM	< 100 nM	COc1cc(OC)c(Cl)c(-c2cc3[nH]nc(-c4cnn(CC(=O)N(C)C)c4)c3cn2)c1Cl [Example 37, 2-{4-[6-(2,6-Dichloro-3,5-dimethoxyphenyl)-1H-pyrazolo[4,3-c]pyridin-3-yl]-1H-pyrazol-1-yl}-N,N-dimethylacetamide]
< 100 nM	< 100 nM	< 100 nM	COC(=O)c1cc2cc(-c3n[nH]c4cc(-c5c(F)c(OC)cc(OC)c5F)ncc34)ccc2o1 [Example 92, Methyl 5-[6-(2,6-difluoro-3,5-dimethoxyphenyl)-1H-pyrazolo[4,3-c]pyridin-3-yl]-1-benzofuran-2-carboxylate]
< 100 nM	< 100 nM	< 100 nM	COc1cc(OC)c(F)c(-c2ncc3c(-c4ccc5c(c4)CC(C(=O)N(C)C)O5)n[nH]c3n2)c1F (single isomer, unassigned) [Example 4, 5-[6-(2,6-Difluoro-3,5-dimethoxyphenyl)-1H-pyrazolo[3,4-d]pyrimidin-3-yl]-N,N-dimethyl-2,3-dihydro-1-benzofuran-2-carboxamide]
< 100 nM	< 100 nM	< 100 nM	COc1cc(OC)c(F)c(-c2ncc3c(-c4ccc5c(c4)CC(C(=O)N(C)C)O5)n[nH]c3n2)c1F (stereo not drawn) [Example 3, 5-[6-(2,6-Difluoro-3,5-dimethoxyphenyl)-1H-pyrazolo[3,4-d]pyrimidin-3-yl]-N,N-dimethyl-2,3-dihydro-1-benzofuran-2-carboxamide]
< 100 nM	< 100 nM	< 100 nM	COc1cc(OC)c(F)c(-c2cc3[nH]nc(-c4cc5c(cc4F)C(=O)N(C(C)C)C5)c3cn2)c1F [Example 65, 5-[6-(2,6-Difluoro-3,5-dimethoxyphenyl)-1H-pyrazolo[4,3-c]pyridin-3-yl]-6-fluoro-2-isopropylisoindolin-1-one]
< 100 nM	< 100 nM	< 100 nM	COc1cc(OC)c(F)c(-c2cc3[nH]nc(-c4ccc5c(c4)CN(C4CC4)C5=O)c3cn2)c1F [Example 54, 2-Cyclopropyl-5-[6-(2,6-difluoro-3,5-dimethoxyphenyl)-1H-pyrazolo[4,3-c]pyridin-3-yl]isoindolin-1-one]
< 100 nM	< 100 nM	< 100 nM	COc1cc(OC)c(F)c(-c2cc3[nH]nc(-c4ccc5c(c4)CCNC5=O)c3cn2)c1F [Example 56, 6-[6-(2,6-Difluoro-3,5-dimethoxyphenyl)-1H-pyrazolo[4,3-c]pyridin-3-yl]-3,4-dihydroisoquinolin-1(2H)-one]
< 100 nM	< 100 nM	< 100 nM	COc1cc(OC)c(F)c(-c2ncc3c(-c4ccc(N5CCN(C)CC5)nc4)n[nH]c3n2)c1F [Example 18, 6-(2,6-Difluoro-3,5-dimethoxyphenyl)-3-[6-(4-methylpiperazin-1-yl)pyridin-3-yl]-1H-pyrazolo[3,4-d]pyrimidine]
< 100 nM	< 100 nM	< 100 nM	CCN1Cc2cc(-c3n[nH]c4cc(-c5c(F)c(OC)cc(OC)c5F)ncc34)cnc2C1=O [Example 55, 3-[6-(2,6-Difluoro-3,5-dimethoxyphenyl)-1H-pyrazolo[4,3-c]pyridin-3-yl]-6-ethyl-5,6-dihydro-7H-pyrrolo[3,4-b]pyridin-7-one]
< 100 nM	< 100 nM	< 100 nM	COc1cc(OC)c(F)c(-c2ncc3c(-c4ccc5c(c4)CC(C(=O)N(C)C)O5)n[nH]c3n2)c1F (single isomer, unassigned) [Example 5, 5-[6-(2,6-Difluoro-3,5-dimethoxyphenyl)-1H-pyrazolo[3,4-d]pyrimidin-3-yl]-N,N-dimethyl-2,3-dihydro-1-benzofuran-2-carboxamide]
< 100 nM	< 100 nM	< 100 nM	COc1cc(OC)c(F)c(-c2cc3[nH]nc(-c4ccc5c(c4)CN([C@H]4CC[C@H](O)CC4)C5=O)c3cn2)c1F [Example 62, 5-[6-(2,6-Difluoro-3,5-dimethoxyphenyl)-1H-pyrazolo[4,3-c]pyridin-3-yl]-2-(trans-4-hydroxycyclohexyl)isoindolin-1-one]
< 100 nM	< 100 nM	< 100 nM	COc1cc(OC)c(Cl)c(-c2ncc3c(-c4ccc5c(c4)CCN(C(C)C)C5=O)n[nH]c3n2)c1Cl [Example 11, 6-[6-(2,6-Dichloro-3,5-dimethoxyphenyl)-1H-pyrazolo[3,4-d]pyrimidin-3-yl]-2-isopropyl-3,4-dihydroisoquinolin-1(2H)-one]
< 100 nM	< 100 nM	< 100 nM	COc1cc(OC)c(Cl)c(-c2ncc3c(-c4ccc5c(c4)CN([C@H]4CC[C@H](O)CC4)C5=O)n[nH]c3n2)c1Cl [Example 23, 5-[6-(2,6-Dichloro-3,5-dimethoxyphenyl)-1H-pyrazolo[3,4-d]pyrimidin-3-yl]-2-(trans-4-hydroxycyclohexyl)isoindolin-1-one]
< 100 nM	< 100 nM	< 100 nM	COc1cc(OC)c(Cl)c(-c2cc3[nH]nc(-c4cnn(CC(=O)N5CCC(N(C)C)C5)c4)c3cn2)c1Cl (stereo not drawn) [Example 44, 1-({4-[6-(2,6-Dichloro-3,5-dimethoxyphenyl)-1H-pyrazolo[4,3-c]pyridin-3-yl]-1H-pyrazol-1-yl}acetyl)-N,N-dimethylpyrrolidin-3-amine]
